As a reminder, the IC50 is the midpoint of a concentration-inhibition curve.

Where only a bound is given, the exact number is not on record here.

What all share (assay type): cell-based
For assay [1], the target named is T1, OXE receptor (Homo sapiens, UniProt Q8TDS5). The experiment in a line: 5-oxo-ETE-induced actin polymerization (F-actin levels) in eosinophils. Set-up: endogenous in cells. The conditions noted are these: 5-oxo-ETE 10 nM, Table 2. The procedure: F-actin levels in eosinophils are measured using unfractionated leukocytes, prepared as described above. Leukocytes (5×10^7 cells/ml) are treated with PC5-labeled mouse anti-human CD16 (10 μl/10^6 cells; Beckman-Coulter) for 30 min on ice. PBS (2 ml/10^6 cells) is then added and the mixture centrifuged at 200×g for 10 min. The pellet is resuspended in ice cold PBS containing Ca^++ (1.8 mM) and Mg^++ (1 mM) to give a concentration of 5×10^6 cells/ml. Aliquots (90 μl) of the leukocyte suspension are first incubated at 37° C. with either vehicle (10 μl PBS containing Ca^++ and Mg^++ and 0.1% BSA) or vehicle containing a 5-oxo-ETE antagonist. After 5 min, either vehicle or vehicle containing 5-oxo-ETE (final concentration, 10 nM) is added and the incubation continued for a further 20 s. The incubations are then terminated by addition of formaldehyde (37%) to give a final concentration of 8.5%. […] F-actin levels are measured by flow cytometry in eosinophils, which are gated based on high side scatter and low staining with anti-CD16. F-actin levels in the eosinophil population are assessed on the basis of fluorescence due to staining with NBD-phallacidin.

The target in assay [2] is T1, OXE receptor. Briefly: 5-oxo-ETE-induced calcium mobilization in human granulocytes. Details: Human granulocytes 95% neutrophils) are prepared from whole blood; endogenous in cells; host or cells: human blood granulocytes (>=95% neutrophils). How it is done: Primary Screening for Antagonist Activity: Calcium Mobilization in Human Granulocytes
Human granulocytes 95% neutrophils) are prepared from whole blood using Dextran 500 to remove red blood cells, followed by centrifugation over Ficoll-Paque to remove mononuclear cells and hypotonic lysis of any remaining red blood cells. After centrifugation the granulocytes are suspended in Ca^++/Mg^++-free phosphate-buffered saline (PBS). Granulocytes (10^7 cells/nil) are incubated with the acetoxymethyl ester of indo-1 ([…]) for 30 min, followed by washing twice with PBS^− and resuspension in the same medium to obtain a final cell concentration of 3.22×10^6 cells/ml. Five minutes prior to commencing data acquisition, Ca^++ and Mg^++ are added to give final concentrations of 1.8 and 1 mM, respectively. Calcium measurements are performed at 37° C. using a spectrofluorometer equipped with a temperature-controlled cuvette holder and a magnetic stirrer. The excitation and emission wavelengths are 331 nm and 410 nm, respectively. Following stabilization of the baseline, fluorescence is measured for 1 min, prior to the addition of either vehicle or various concentrations of a potential 5-oxo-ETE antagonist. Two min later, 5-oxo-ETE (10 nM) is added, followed 1 min later by digitonin (final concentration 0.1%). Data acquisition is terminated after a further 0.5 min. In some cases LTB4 (10 nM) is added 2 min after 5-oxo-ETE, followed 0.5 min later by addition of digitonin. Fmax is determined from fluorescence measurements after the addition of digitonin, whereas Fmin is determined after determination of autofluorescence as described in the literature (Gelfand et al, J. Biol. Chem. 261:11520 (1986)). A dissociation constant of 250 nM for the indo-1/Ca^++ complex is used to calculate [Ca^++]i. […] Measurement of Actin Polymerization in Eosinophils
(Calcium flux is commonly read through the fluorescence of an indicator in the cells.)

Assay [3] concerns calcium mobilization in response to LTB4. The experiment in a line: LTB4-induced calcium mobilization in human neutrophils. The conditions noted are these: compound 1 μM, LTB4 10 nM, FIG. 2. How it is done: Human granulocytes 95% neutrophils) are prepared from whole blood using Dextran 500 to remove red blood cells, followed by centrifugation over Ficoll-Paque to remove mononuclear cells and hypotonic lysis of any remaining red blood cells. After centrifugation the granulocytes are suspended in Ca^++/Mg^++-free phosphate-buffered saline (PBS). Granulocytes (10^7 cells/nil) are incubated with the acetoxymethyl ester of indo-1 ([…]) for 30 min, followed by washing twice with PBS^− and resuspension in the same medium to obtain a final cell concentration of 3.22×10^6 cells/ml. Five minutes prior to commencing data acquisition, Ca^++ and Mg^++ are added to give final concentrations of 1.8 and 1 mM, respectively. Calcium measurements are performed at 37° C. using a spectrofluorometer equipped with a temperature-controlled cuvette holder and a magnetic stirrer. The excitation and emission wavelengths are 331 nm and 410 nm, respectively. Following stabilization of the baseline, fluorescence is measured for 1 min, prior to the addition of either vehicle or various concentrations of a potential 5-oxo-ETE antagonist. […] Fmax is determined from fluorescence measurements after the addition of digitonin, whereas Fmin is determined after determination of autofluorescence as described in the literature (Gelfand et al, J. Biol. Chem. 261:11520 (1986)). […]

The target in assay [4] is T1, OXE receptor. Briefly: Neutrophil migration (chemotaxis) induced by 5-oxo-ETE, microchemotaxis chambers. Details: Human granulocytes 95% neutrophils) are prepared from whole blood; endogenous in cells; host or cells: human blood granulocytes (>=95% neutrophils). The following applies: 5-oxo-ETE 100 nM; human granulocytes; Table 2. How it is done:
Cell migration is measured by the modified Boyden technique using 48-well microchemotaxis chambers and Sartorius cellulose nitrate filters (8 μm pore size; 140 μm thickness) as described previously (Powell et al., J Immunol 156: 336 (1996)). Granulocytes (≧95% neutrophils) are prepared as described above. Immediately prior to use the filters are soaked in PBS containing calcium (1 mM), magnesium (1 mM), and 0.3% BSA. Either vehicle (PBS containing Ca^++, Mg^++, and 0.3% BSA) or vehicle containing 5-oxo-ETE (100 nM final concentration) is added to the bottom well in a volume of 30 μl, whereas neutrophils (150,000 cells in 55 μl PBS containing Ca^++, Mg^++ and 0.4% ovalbumin) and either vehicle or various concentrations of a 5-oxo-ETE antagonist are added to each of the top wells. The chambers are incubated for 2 h at 37° C. in 5% CO2 and humidified air. […] The filters are mounted on slides with coverslips using Permount and the numbers of cells on the bottom surfaces of the filters are counted in 5 different fields at a magnification of 400× for each incubation, each of which is performed in triplicate. In cases in which there are large numbers of cells on the bottom surfaces of the filters only quarter or half fields are counted and the results corrected accordingly.

Where [5] appears, read: 5-oxo-ETE 10 nM, human granulocytes, Table 2, read-out: IC50 (μM) Ca^++.

T1 sequence (Q8TDS5 whole entry): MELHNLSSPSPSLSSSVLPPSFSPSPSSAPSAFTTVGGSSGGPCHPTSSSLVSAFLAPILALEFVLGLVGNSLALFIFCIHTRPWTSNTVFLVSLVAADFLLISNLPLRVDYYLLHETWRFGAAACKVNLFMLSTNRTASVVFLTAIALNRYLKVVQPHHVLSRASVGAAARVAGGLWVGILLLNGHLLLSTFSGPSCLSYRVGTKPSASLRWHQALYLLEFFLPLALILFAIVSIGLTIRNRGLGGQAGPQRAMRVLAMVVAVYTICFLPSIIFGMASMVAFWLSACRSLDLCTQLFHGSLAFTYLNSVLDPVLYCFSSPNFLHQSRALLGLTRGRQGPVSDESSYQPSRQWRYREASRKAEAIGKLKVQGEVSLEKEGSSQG

For `CCCCCCc1c(C(=O)CC(C)CC(=O)O)c2cc(Cl)ccc2n1C` (racemic) [Compound 60, 5-(5-Chloro-2-hexyl-1-methyl-1H-indol-3-yl)-3-methyl-5-oxo-pentanoic acid], the IC50 at OXE receptor [1] was 0.072 µM; on OXE receptor [2] (setting [5]) it was 0.025 µM; against OXE receptor [4], 0.11 µM. Further, on OXE receptor [2] (compound 1 μM, 5-oxo-ETE 10 nM, human neutrophils, FIG. 2), the “effect on calcium mobilization in response to 5-oxo-ETE” value is given as “completely blocked”. In addition, in assay [3], the “effect on calcium mobilization in response to LTB4” value is “not to LTB4”.
Turning to `CCCCCCc1cc2ccccc2n1C(=O)CC(C)CC(=O)O` (centres unmarked) [Compound 2, 5-(2-Hexyl-indol-1-yl)-3-methyl-5-oxo-pentanoic acid], the 50% inhibitory concentration (IC50) against OXE receptor [1] is 0.46 µM; on OXE receptor [2] (setting [5]), 0.09 µM; on OXE receptor [2] (Table 6, carboxyl side chain variation, readout not given, values match Ca^++, read-out: IC50), 0.09 µM; on OXE receptor [2] (Table 7, alkyl variation, readout not given, values match Ca^++, read-out: IC50) it was 0.09 µM; at OXE receptor [4], 0.82 µM.
Take `CCCCCCc1cc2ccc(Cl)cc2n1C(=O)CCC(C)(C)C(=O)O` [Compound 116, 5-(6-Chloro-2-hexyl-indol-1-yl)-2,2-dimethyl-5-oxo-pentanoic acid]: on OXE receptor [2] (setting [5]), the half-inhibitory concentration (IC50) was > 10 µM.
